Data taken from the NIST ThermoML archive (doi:10.1016/j.jct.2012.02.036).
Values joined by “and” are separate entries in the source; they are usually repeats but may differ in a detail not shown here. Identical values can stand only once.

Key:
[1] = Liquid; for mass density: Vibrating tube method
[2] = xn = mol fraction of the nth substance listed; conditions: 101 kPa, Liquid, x2 = 0; for mass density: Vibrating tube method

CC(C)CO [2-methyl-1-propanol]
[1]
Conditions	mass density, 293.15 K [kg/m3]	mass density, 303.15 K [kg/m3]	mass density, 313.15 K [kg/m3]	mass density, 323.15 K [kg/m3]	mass density, 333.15 K [kg/m3]	viscosity, 293.15 K [mPa·s]	viscosity, 303.15 K [mPa·s]	viscosity, 313.15 K [mPa·s]	viscosity, 323.15 K [mPa·s]	viscosity, 333.15 K [mPa·s]
101 kPa	801.8	–	–	–	–	4.197	2.873	1.926	1.232	0.665
101.33 kPa	801.75	793.99	786.04	777.85	769.36	–	–	–	–	–

[1], 101.33 kPa, Capillary tube (Ostwald / Ubbelohde) method
Conditions	viscosity [mPa·s]
293.15 K	4.085
303.15 K	2.877
313.15 K	2.091
323.15 K	1.576
333.15 K	1.124

CC(C)CO [2-methyl-1-propanol] + NCCCO
[2]
Conditions	mass density [kg/m3]	viscosity [mPa·s]
293.15 K	801.8	4.197
303.15 K	793.99	2.873
313.15 K	786.04	1.926
323.15 K	777.85	1.232
333.15 K	769.36	–

NCCCO [3-amino-1-propanol]
[1]
Conditions	mass density, 293.15 K [kg/m3]	mass density, 303.15 K [kg/m3]	mass density, 313.15 K [kg/m3]	mass density, 323.15 K [kg/m3]	mass density, 333.15 K [kg/m3]	viscosity, 293.15 K	viscosity, 303.15 K [mPa·s]	viscosity, 313.15 K [mPa·s]	viscosity, 323.15 K [mPa·s]	viscosity, 333.15 K
101 kPa	987.65	979.65	971.61	963.52	955.38	40.45 mPa·s and 40.46 mPa·s	23.98	15.31	10.22	6.961 mPa·s and 6.962 mPa·s
101.33 kPa	987.55	979.53	971.47	963.37	955.22	–	–	–	–	–

[1], 101.33 kPa, Capillary tube (Ostwald / Ubbelohde) method
Conditions	viscosity [mPa·s]
293.15 K	40.42
303.15 K	23.87
313.15 K	15.27
323.15 K	10.22
333.15 K	7.123

CC(C)O [propan-2-ol]
[1]
Conditions	mass density, 293.15 K [kg/m3]	mass density, 303.15 K [kg/m3]	mass density, 313.15 K [kg/m3]	mass density, 323.15 K [kg/m3]	mass density, 333.15 K [kg/m3]	viscosity, 293.15 K [mPa·s]	viscosity, 303.15 K [mPa·s]	viscosity, 313.15 K [mPa·s]
101 kPa	785.36	776.87	768.07	758.89	749.25	2.318	1.596	0.996
101.33 kPa	785.25	776.78	767.98	758.82	749.2	–	–	–

[1], 101.33 kPa, Capillary tube (Ostwald / Ubbelohde) method
Conditions	viscosity [mPa·s]
293.15 K	2.362
303.15 K	1.769
313.15 K	1.33
323.15 K	1.014

CC(C)O [propan-2-ol] + NCCCO
[2]
Conditions	mass density [kg/m3]	viscosity [mPa·s]
293.15 K	785.36	2.318
303.15 K	776.87	1.596
313.15 K	768.07	0.996
323.15 K	758.89	–
333.15 K	749.25	–
